Results published in PMC6615261, “Repurposing Azithromycin and Rifampicin Against Gram-Negative Pathogens by Combination With Peptidomimetics” (Frontiers in Cellular and Infection Microbiology, 2019).
Read-outs that look alike come from different tables or passages of the source.

What was measured:
E. coli ST131 = assay: MIC by broth microdilution; type: cell-based, Escherichia coli; details: peptidomimetic alone
Protocol: (§1) Minimal inhibitory concentrations (MICs) of peptidomimetics, antibiotics and their combinations were determined by broth microdilution according to the Clinical Laboratory Standards Institute performance standards (Clinical and Laboratory Standards Institute, [2013]). […] Since rifampicin and azithromycin mainly are used to treat infections with Gram-positive pathogens only CLSI clinical breakpoints were available for such bacteria. […] Potentiation of additional antibiotics by peptidomimetics was determined by using commercial 96-well plates containing varied concentrations of standard antibiotics (COMPAN1F; Trek Diagnostic Systems Inc.). The peptidomimetics were added immediately prior to inoculation with pathogen, and then MICs were determined as above. The MICs of peptidomimetic/antibiotic combinations were determined according to the method above, and the concentration ratios were selected based upon checkerboard results with 2:1 and 1:4 ratio of peptidomimetic with rifampicin or azithromycin, respectively. Minimal bactericidal concentrations (MBCs) were determined by using growth-curve assay plates. MIC plates were prepared as above, and then the plates were incubated at 37°C with continuous shaking. Growth was recorded at 10 min intervals as optical density (OD) at 600 nm during 24 h. At 24 h, for wells without growth, a sample was diluted 10-fold in sterile saline (0.9% sodium chloride) and plated onto MHA, following CLSI guidelines (Clinical and Laboratory Standards Institute, [1999]).

[1] = MTS/PMS cell viability assay; type: cell-based, mouse; details: mouse, NIH 3T3 fibroblasts, 1 h exposure, read-out: Cytotoxicity NIH 3T3 EC50 ± SD
Protocol: (§2) NIH 3T3 and HepG2 cells (both from ATCC, Manassas, VA, USA) were cultured in flat-bottomed 96-well MicroWell™ plates (NUNC, Roskilde, Denmark) at seeding densities of ~23,000 and ~22,000 cells/well, respectively, and then cultured for 22–24 h under standard culturing conditions (37°C, 5% CO2, humidified air) to reach 80–90% confluence. NIH 3T3 were cultured in Dulbecco's modified Eagle's medium (DMEM) supplemented with 10% (v/v) newborn-calf serum (NCS) (Gibco, Paisly, UK), while HepG2 were cultured in Eagle's minimum essential medium (EMEM) supplemented with 10% (v/v) fetal bovine serum (FBS, Gibco, Paisly, UK), sodium pyruvate (1 mM), and non-essential amino acids (1%, v/v). Both culturing media were further supplemented with penicillin (100 U/mL), streptomycin (100 μg/mL), and L-glutamine (2 mM).
(§3) Effect on cell viability was determined in NIH 3T3 fibroblasts and HepG2 hepatocytes by using the MTS/PMS assay measuring metabolic activity. Briefly, the adhered cells were washed with 37°C Hanks' balanced salt solution (HBSS from Sigma-Aldrich, St. Louis, MO, USA), containing 10 mM HEPES (AppliChem, Darmstadt, Germany), and adjusted to pH 7.4, and were then exposed for 1 h to 100 μL of test compound(s) dissolved in the appropriate culturing medium without serum for each cell line. After exposure the cells were washed with HBSS containing 10 mM HEPES (pH 7.4) and 100 μL of an MTS/PMS solution, consisting of 240 μg/mL MTS (Promega, Madison, WI, USA) and 2.4 μg/mL PMS (SigmaAldrich, Buchs, Switzerland) in HBSS, was added to the cells, which then were incubated for 1 h at 37°C with horizontal shaking under light protection. Absorbance was measured at 492 nm by using a POLARstar OPTIMA plate reader (BMG Labtech, Offenburg, Germany). The relative viability was calculated according to Equation (1) with absorbance values obtained after incubation of cells with test compound; incubation with SDS (0.2%, w/v in medium) defined 100% cell death (Abspos), while the absorbance of cells incubated with medium defined 0% cell death (Absneg).
(§4) (1) Relative viability(%)=(Abssample-Abspos)/(Absneg-Abspos)×100%
(§5) EC50 values were calculated by using GraphPad Prism 7 (GraphPad Software, La Jolla, CA, USA) via fitting of the relative cell viability to the concentration of the test compound by using Equation (2):
(§6) (2) Relative viability(%)= Top-Bottom/1+10^(LogIC50-Log[peptidomimetic]) ×Hill slope
(§7) With top and bottom representing the mean highest and lowest observed values, respectively. The Hill slope represents a factor for the steepness of the linear part of the curve. In order to prevent erroneous calculation, the top and bottom values were constrained to 100 and 0%, respectively. Data were collected from technical triplicates. The selectivity index was calculated as the average effect on cell viability (EC50 values for HepG2 and NIH 3T3 cells) divided by the MIC.

P. aeruginosa ATCC 27853 = assay: MIC by broth microdilution; type: cell-based, Pseudomonas aeruginosa; details: peptidomimetic alone
Protocol: as §1

[2] = MTS/PMS cell viability assay; type: cell-based; details: human, HepG2 hepatocytes, 1 h exposure, read-out: Cytotoxicity HepG2 EC50 ± SD
Protocol: as §2, §3, §4, §5, §6, §7

## NCCCC[C@H](NC(=O)CCN(Cc1ccccc1)C(=O)[C@H](CCCCN)NC(=O)CCN(Cc1ccccc1)C(=O)[C@H](CCCCN)NC(=O)CCN(Cc1ccccc1)C(=O)[C@H](CCCCN)NC(=O)CCN(Cc1ccccc1)C(=O)[C@H](CCCCN)NC(=O)CCN(Cc1ccccc1)C(=O)[C@H](CCCCN)NC(=O)CCN(Cc1ccccc1)C(=O)[C@H](CCCCN)NC(=O)CCN(Cc1ccccc1)C(=O)[C@@H](N)CCCCN)C(=O)N(CCC(N)=O)Cc1ccccc1 [Peptidomimetic 1, H-(Lys-βNPhe)8-NH2]
E. coli ST131
  MIC E. coli ST131: 2 µM
[1]
  EC50 at 1 h: 211 ± 26.8 µM
P. aeruginosa ATCC 27853
  MIC P. aeruginosa ATCC 27853: 1 µM
[2]
  EC50 at 1 h: 124 ± 0.81 µM
